Data from publication PMC7846937 (Bioorganic chemistry, 2020).

How the values were obtained:
Assay in all cases: stopped-flow CO2 hydration assay
Format in all cases: biochemical
[1] = target: hCA XII (Homo sapiens, UniProt O43570)
[2] = target: hCA I (Homo sapiens, UniProt P00915)
[3] = target: hCA II (Homo sapiens, UniProt P00918)

hCA I, sequence (P00915 2-261): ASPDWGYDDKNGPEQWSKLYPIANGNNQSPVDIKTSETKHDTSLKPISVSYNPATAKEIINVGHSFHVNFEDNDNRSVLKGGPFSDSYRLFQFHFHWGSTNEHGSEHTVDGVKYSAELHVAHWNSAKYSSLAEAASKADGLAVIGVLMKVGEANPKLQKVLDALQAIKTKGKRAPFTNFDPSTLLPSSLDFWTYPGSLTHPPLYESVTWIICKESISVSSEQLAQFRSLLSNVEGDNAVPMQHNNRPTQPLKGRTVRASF
hCA XII, sequence (O43570 30-289 limits assumed): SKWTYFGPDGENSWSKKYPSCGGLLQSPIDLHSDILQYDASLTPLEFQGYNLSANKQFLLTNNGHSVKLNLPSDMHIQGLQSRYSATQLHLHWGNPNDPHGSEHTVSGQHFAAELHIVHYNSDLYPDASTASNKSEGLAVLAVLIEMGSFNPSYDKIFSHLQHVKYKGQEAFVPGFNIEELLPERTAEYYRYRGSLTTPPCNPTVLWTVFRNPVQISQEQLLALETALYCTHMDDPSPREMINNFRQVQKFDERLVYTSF

SMILES	Ki [1]	Ki [2]	Ki [3]
CCCc1cc(C)cc(CCC)[n+]1-c1cccc(S(N)(=O)=O)c1 [19c, 4-Methyl-2,6-di-n-propyl-1-(3-sulfamoylphenyl)pyridinium hexafluorophosphate]	3.6 nM	84.5 nM	7.8 nM
Cc1cc(C)[n+](-c2cccc(S(N)(=O)=O)c2)c(C)c1 [19a, 2,4,6-Trimethyl-1-(3-sulfamoylphenyl)pyridinium hexafluorophosphate]	–	82.1 nM	–
CCCCc1cc(-c2ccccc2)cc(-c2ccccc2)[n+]1-c1cccc(S(N)(=O)=O)c1 [19s, 2-n-Butyl-4,6-diphenyl-1-(3-sulfamoyl-phenyl)-pyridinium hexafluorophosphate]	35.2 nM	137 nM	43.9 nM
CCCCc1cc(-c2ccccc2)cc(CCCC)[n+]1-c1cccc(S(N)(=O)=O)c1 [19n, 2,6-Di-n-butyl-4-phenyl-1-(3-sulfamoyl-phenyl)-pyridinium hexafluorophosphate]	40.2 nM	433 nM	49.3 nM
Cc1cc(C)[n+](-c2cccc(S(N)(=O)=O)c2)c(-c2ccccc2)c1 [19v, 2,4-Dimethyl-6-phenyl-1-(3-sulfamoylphenyl)pyridinium hexafluorophosphate]	4.7 nM	72.3 nM	8.8 nM
CCCc1cc(-c2ccccc2)cc(CCC)[n+]1-c1cccc(S(N)(=O)=O)c1 [19l, 2,6-Di-n-propyl-4-phenyl-1-(3-sulfamoyl-phenyl)-pyridinium hexafluorophosphate]	21.5 nM	75.8 nM	18 nM
Cc1c2cc(c(C)[n+]1-c1cccc(S(N)(=O)=O)c1)CCCCCCCCC2 [19u, 2,6-Dimethyl-3,5-(1,9-nonane-diyl)-1-(3-sulfamoyl-phenyl)pyridinium hexafluorophosphate]	25.1 nM	256 nM	39.8 nM
CCCCc1cc(C)cc(CCCC)[n+]1-c1cccc(S(N)(=O)=O)c1 [19e, 2,6-Di-n-butyl-4-methyl-1-(3-sulfamoylphenyl)pyridinium hexafluorophosphate]	51.5 nM	462 nM	58.1 nM
CCc1cc(C)cc(CC)[n+]1-c1cccc(S(N)(=O)=O)c1 [19b, 2,6-Diethyl-4-methyl-1-(3-sulfamoylphenyl)pyridinium hexafluorophosphate]	4 nM	86.3 nM	8.5 nM
CCCc1cc(C)cc(C)[n+]1-c1cccc(S(N)(=O)=O)c1 [19g, 2,4-Dimethyl-6-n-propyl-1-(3-sulfamoylphenyl)pyridinium hexafluorophosphate]	5.4 nM	70.1 nM	7.2 nM
CCc1cc(-c2ccccc2)cc(CC)[n+]1-c1cccc(S(N)(=O)=O)c1 [19k, 2,6-Diethyl-4-phenyl-1-(3-sulfamoyl-phenyl)-pyridinium hexafluorophosphate]	12.1 nM	71.6 nM	10.2 nM

Compounds with a lower Ki [2], results first:

Ki [1]	Ki [2]	Ki [3]	SMILES
7.4 nM	60.7 nM	10.4 nM	Cc1cc(C)[n+](-c2cccc(S(N)(=O)=O)c2)c(C(C)C)c1 [19h, 2-Isopropyl-4,6-dimethyl-1-(3-sulfamoylphenyl)pyridinium hexafluorophosphate]
3.4 nM	54.9 nM	2.6 nM	Cc1cc(C)[n+](-c2cccc(S(N)(=O)=O)c2)c(C)c1C [19t, 2,3,4,6-Tetramethyl-1-(3-sulfamoylphenyl)pyridinium hexafluorophosphate]
5.5 nM	33.8 nM	9.6 nM	Cc1cc(C(C)C)[n+](-c2cccc(S(N)(=O)=O)c2)c(C(C)C)c1 [19d, 2,6-Diisopropyl-4-methyl-1-(3-sulfamoylphenyl)pyridinium hexafluorophosphate]
3.7 nM	63.6 nM	12.9 nM	CCc1cc(C)cc(C)[n+]1-c1cccc(S(N)(=O)=O)c1 [19f, 2-Ethyl-4,6-dimethyl-1-(3-sulfamoylphenyl)pyridinium hexafluorophosphate]
8.8 nM	19.7 nM	6.7 nM	Cc1cc(-c2ccccc2)[n+](-c2cccc(S(N)(=O)=O)c2)c(-c2ccccc2)c1 [19w, 4-Methyl-2,6-diphenyl-1-(3-sulfamoylphenyl)pyridinium hexafluorophosphate]
21.7 nM	58 nM	13 nM	NS(=O)(=O)c1cccc(-[n+]2c(-c3ccccc3)cc(-c3ccccc3)cc2-c2ccccc2)c1 [19x, 2,4,6-Triphenyl-1-(3-sulfamoylphenyl)pyridinium hexafluorophosphate]
0.87 nM	65.3 nM	1.2 nM	Cc1cc(-c2ccccc2)cc(C)[n+]1-c1cccc(S(N)(=O)=O)c1 [19j, 2,6-Dimethyl-4-phenyl-1-(3-sulfamoyl-phenyl)-pyridinium hexafluorophosphate]
5.8 nM	41.8 nM	9.3 nM	CC(C)c1cc(-c2ccccc2)cc(C(C)C)[n+]1-c1cccc(S(N)(=O)=O)c1 [19m, 2,6-Diisopropyl-4-phenyl-1-(3-sulfamoylphenyl)pyridinium hexafluorophosphate]
1.4 nM	18 nM	4 nM	CCc1cc(-c2ccccc2)cc(-c2ccccc2)[n+]1-c1cccc(S(N)(=O)=O)c1 [19p, 2-Ethyl-4,6-diphenyl-1-(3-sulfamoyl-phenyl)-pyridinium hexafluorophosphate]
0.96 nM	8.5 nM	3.4 nM	Cc1cc(-c2ccccc2)cc(-c2ccccc2)[n+]1-c1cccc(S(N)(=O)=O)c1 [19o, 2-Methyl-4,6-diphenyl-1-(3-sulfamoyl-phenyl)-pyridinium hexafluorophosphate]
4 nM	65.1 nM	6.8 nM	CCCCc1cc(C)cc(C)[n+]1-c1cccc(S(N)(=O)=O)c1 [19i, 2-n-Butyl-4,6-dimethyl-1-(3-sulfamoylphenyl)pyridinium hexafluorophosphate]
